IC50 and ΔTm data for one compound are collected here from ChEMBL document CHEMBL5375979, “Chemical, Biochemical, Cellular, and Physiological Characterization of Leucettinib-21, a Down Syndrome and Alzheimer's Disease Drug Candidate” (J Med Chem, 2023).

For assay [1], the target named is Dual specificity protein kinase CLK4 (Homo sapiens, UniProt Q9HAZ1).
Assay [2] has as its target Cyclin-dependent kinase-like 1 (Homo sapiens, UniProt Q00532).
Description: Inhibition of human CDKL1 assessed as remaining activity by eurofins-cerep kinase profiler analysis
For assay [3], the target named is Cyclin-dependent kinase-like 3 (Homo sapiens, UniProt Q8IVW4).
Cyclin-dependent kinase-like 3, sequence (Q8IVW4 whole entry): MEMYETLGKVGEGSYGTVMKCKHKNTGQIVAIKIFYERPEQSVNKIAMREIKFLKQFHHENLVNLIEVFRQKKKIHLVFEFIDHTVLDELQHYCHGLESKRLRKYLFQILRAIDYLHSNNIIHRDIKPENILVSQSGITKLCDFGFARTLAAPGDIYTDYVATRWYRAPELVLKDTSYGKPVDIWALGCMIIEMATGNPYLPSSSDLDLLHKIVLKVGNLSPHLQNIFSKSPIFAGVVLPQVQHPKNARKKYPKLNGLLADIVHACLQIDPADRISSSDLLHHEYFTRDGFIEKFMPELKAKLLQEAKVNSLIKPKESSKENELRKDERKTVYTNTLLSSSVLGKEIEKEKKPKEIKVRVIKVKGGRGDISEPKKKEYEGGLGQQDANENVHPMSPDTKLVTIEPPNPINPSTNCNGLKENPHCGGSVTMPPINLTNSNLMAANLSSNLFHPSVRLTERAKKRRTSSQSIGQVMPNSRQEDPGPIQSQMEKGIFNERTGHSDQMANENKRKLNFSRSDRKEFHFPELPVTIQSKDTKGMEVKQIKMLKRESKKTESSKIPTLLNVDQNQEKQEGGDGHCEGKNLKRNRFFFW
Description: Inhibition of human CDKL3 assessed as remaining activity by eurofins-cerep kinase profiler analysis
Assay [4] deals with Dual specificity protein kinase CLK1 (Homo sapiens, UniProt P49759).
Dual specificity protein kinase CLK1, sequence (P49759 whole entry): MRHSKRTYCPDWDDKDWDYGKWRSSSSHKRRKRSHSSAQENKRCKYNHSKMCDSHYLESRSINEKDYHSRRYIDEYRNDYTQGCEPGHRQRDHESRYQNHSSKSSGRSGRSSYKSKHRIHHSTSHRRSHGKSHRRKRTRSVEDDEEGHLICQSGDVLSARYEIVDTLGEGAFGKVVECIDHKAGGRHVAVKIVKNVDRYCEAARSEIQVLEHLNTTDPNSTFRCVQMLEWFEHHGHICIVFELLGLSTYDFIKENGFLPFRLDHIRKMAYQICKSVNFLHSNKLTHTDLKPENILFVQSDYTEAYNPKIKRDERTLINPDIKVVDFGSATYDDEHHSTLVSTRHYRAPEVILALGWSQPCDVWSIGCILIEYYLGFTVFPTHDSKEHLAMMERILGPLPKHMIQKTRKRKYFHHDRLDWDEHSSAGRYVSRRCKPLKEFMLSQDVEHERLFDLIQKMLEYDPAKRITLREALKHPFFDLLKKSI
For assay [5], the target named is Dual specificity protein kinase CLK3 (Homo sapiens, UniProt P49761).
Dual specificity protein kinase CLK3, sequence (P49761 whole entry): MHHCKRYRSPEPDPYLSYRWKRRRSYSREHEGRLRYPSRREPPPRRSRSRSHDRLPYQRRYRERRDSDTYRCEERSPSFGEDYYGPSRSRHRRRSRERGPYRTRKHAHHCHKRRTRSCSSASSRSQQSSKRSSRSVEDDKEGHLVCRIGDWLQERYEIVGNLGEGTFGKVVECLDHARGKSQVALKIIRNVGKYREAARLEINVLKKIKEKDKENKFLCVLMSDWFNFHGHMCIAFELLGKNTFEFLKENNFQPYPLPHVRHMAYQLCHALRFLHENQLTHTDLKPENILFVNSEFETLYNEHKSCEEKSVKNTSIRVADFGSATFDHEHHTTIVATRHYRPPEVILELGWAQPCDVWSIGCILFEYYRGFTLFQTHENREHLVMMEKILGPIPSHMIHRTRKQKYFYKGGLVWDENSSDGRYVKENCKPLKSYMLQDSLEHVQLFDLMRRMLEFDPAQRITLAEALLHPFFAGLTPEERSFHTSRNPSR
Description: Inhibition of human CLK3 assessed as remaining activity by eurofins-cerep kinase profiler analysis
In another assay the target is Myotonin-protein kinase (Homo sapiens, UniProt Q09013).
Assay [6] addresses T1, Homeodomain-interacting protein kinase 2 (Homo sapiens, UniProt Q9H2X6).
Description: Inhibition of human HIPK2 assessed as remaining activity by eurofins-cerep kinase profiler analysis
Assay [7] addresses cGMP-dependent protein kinase 2 (Homo sapiens, UniProt Q13237).
Description: Inhibition of human PRKG2 assessed as remaining activity by eurofins-cerep kinase profiler analysis
Assay [8] deals with Transcription initiation factor TFIID subunit 1-like (Homo sapiens, UniProt Q8IZX4).
Transcription initiation factor TFIID subunit 1-like, sequence (Q8IZX4 whole entry): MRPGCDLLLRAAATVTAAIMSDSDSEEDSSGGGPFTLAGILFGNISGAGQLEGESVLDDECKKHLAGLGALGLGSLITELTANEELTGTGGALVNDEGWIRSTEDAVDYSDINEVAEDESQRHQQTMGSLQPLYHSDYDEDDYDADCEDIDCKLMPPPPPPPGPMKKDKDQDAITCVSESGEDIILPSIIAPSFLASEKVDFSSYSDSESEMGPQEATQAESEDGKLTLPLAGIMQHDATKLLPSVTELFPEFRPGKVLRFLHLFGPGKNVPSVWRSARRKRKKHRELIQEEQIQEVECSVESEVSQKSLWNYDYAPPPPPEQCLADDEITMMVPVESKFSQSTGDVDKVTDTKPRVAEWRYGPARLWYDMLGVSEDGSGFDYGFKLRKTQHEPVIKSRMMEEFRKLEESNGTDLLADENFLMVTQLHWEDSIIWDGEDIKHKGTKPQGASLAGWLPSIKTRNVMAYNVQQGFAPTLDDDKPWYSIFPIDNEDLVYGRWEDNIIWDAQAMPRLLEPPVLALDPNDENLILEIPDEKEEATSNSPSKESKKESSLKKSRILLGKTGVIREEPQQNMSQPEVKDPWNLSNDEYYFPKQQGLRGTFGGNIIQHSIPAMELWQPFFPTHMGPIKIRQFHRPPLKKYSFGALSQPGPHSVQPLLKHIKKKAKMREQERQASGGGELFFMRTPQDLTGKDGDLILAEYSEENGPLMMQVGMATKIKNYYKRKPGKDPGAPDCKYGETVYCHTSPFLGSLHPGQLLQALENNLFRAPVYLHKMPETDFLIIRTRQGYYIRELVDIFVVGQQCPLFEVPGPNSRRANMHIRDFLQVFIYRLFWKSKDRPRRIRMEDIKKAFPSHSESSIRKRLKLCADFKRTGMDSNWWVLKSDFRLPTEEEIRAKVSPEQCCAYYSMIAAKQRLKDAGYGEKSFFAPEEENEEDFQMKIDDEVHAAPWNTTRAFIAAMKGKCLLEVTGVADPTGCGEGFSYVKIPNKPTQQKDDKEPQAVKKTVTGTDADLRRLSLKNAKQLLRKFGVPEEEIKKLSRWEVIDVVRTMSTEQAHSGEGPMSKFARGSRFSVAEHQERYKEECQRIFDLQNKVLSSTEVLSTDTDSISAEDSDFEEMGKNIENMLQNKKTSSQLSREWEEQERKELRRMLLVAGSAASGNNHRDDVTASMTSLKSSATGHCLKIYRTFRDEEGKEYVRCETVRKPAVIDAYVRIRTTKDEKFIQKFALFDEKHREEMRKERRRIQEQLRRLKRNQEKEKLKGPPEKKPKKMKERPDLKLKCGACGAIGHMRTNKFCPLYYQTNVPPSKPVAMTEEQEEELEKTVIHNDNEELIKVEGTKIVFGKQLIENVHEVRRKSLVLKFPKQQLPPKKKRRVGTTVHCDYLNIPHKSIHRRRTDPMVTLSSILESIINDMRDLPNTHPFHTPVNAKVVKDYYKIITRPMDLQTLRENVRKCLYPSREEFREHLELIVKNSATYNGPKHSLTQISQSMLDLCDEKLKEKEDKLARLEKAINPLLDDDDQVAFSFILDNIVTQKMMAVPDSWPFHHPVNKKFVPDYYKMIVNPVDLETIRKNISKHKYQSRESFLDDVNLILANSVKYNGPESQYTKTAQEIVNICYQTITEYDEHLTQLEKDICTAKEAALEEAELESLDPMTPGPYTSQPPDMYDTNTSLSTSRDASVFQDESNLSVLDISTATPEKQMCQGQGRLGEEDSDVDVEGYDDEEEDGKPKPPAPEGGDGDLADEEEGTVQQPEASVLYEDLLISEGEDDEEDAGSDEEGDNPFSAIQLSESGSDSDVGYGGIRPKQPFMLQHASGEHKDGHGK
Description: Inhibition of human TAF1L assessed as remaining activity by eurofins-cerep kinase profiler analysis
The target in assay [9] is Dual specificity tyrosine-phosphorylation-regulated kinase 2 (Homo sapiens) (UniProt Q92630). The following applies: dose 10.0 µM.
Dual specificity tyrosine-phosphorylation-regulated kinase 2 (Homo sapiens), sequence (Q92630 whole entry): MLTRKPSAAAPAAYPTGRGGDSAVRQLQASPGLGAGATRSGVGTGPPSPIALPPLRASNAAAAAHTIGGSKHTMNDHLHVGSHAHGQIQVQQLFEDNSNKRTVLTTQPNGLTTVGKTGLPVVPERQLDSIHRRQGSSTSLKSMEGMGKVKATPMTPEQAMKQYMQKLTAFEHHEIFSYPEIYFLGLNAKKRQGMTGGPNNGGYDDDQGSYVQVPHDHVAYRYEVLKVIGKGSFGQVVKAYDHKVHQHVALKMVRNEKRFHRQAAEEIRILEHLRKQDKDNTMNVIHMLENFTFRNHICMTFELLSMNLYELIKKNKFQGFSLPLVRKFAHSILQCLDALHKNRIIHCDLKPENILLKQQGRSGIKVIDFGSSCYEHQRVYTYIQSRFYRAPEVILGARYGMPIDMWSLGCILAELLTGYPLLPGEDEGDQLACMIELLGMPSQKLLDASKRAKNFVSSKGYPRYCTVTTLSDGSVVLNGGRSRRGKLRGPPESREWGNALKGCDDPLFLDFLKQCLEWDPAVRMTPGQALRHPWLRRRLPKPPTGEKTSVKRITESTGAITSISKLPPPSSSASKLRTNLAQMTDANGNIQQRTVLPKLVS
The target of assay [10] is Glycogen synthase kinase-3 beta (Homo sapiens) (UniProt P49841). Conditions: dose 10.0 µM.
In assay [11] the target is Myotonin-protein kinase (Homo sapiens) (UniProt Q09013). The following applies: dose 10.0 µM.
In assay [12] the target is T1, Homeodomain-interacting protein kinase 2. The following applies: dose 10.0 µM.

cGMP-dependent protein kinase 2, sequence (Q13237 whole entry): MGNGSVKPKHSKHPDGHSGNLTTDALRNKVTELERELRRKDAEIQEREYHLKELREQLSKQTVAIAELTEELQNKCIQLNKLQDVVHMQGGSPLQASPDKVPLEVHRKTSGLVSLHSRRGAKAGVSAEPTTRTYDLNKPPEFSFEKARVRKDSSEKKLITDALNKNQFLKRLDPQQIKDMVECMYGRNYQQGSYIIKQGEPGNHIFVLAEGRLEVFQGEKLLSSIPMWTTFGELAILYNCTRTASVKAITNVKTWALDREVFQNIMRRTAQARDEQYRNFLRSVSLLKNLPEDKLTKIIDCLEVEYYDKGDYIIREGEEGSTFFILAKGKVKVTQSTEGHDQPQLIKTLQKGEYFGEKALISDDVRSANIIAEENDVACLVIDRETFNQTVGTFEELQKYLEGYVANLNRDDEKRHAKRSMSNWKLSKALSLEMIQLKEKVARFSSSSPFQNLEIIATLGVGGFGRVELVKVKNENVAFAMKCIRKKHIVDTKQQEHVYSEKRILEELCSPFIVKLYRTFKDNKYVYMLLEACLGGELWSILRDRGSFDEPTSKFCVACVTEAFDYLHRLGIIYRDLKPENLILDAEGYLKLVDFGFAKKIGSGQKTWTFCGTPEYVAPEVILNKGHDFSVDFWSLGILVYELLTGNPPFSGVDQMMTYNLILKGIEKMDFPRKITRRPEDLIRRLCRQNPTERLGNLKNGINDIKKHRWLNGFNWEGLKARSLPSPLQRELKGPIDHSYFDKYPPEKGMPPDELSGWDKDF

By IC50 is commonly meant the point on the concentration scale where inhibition reaches its midpoint. Low values mean inhibition by little substance, high ones a need for much substance. The ΔTm is the change in melting temperature against a reference sample. For the compound `COC[C@@H](CC(C)C)NC1=N/C(=C\c2ccc3scnc3c2)C(=O)N1`, the IC50 is greater than 10000 nM in assay [1]; greater than 1000 nM in assay [2]; greater than 1000 nM in assay [3]; greater than 1000 nM in assay [4]; greater than 1000 nM in assay [5]; greater than 1000 nM at Myotonin-protein kinase. The IC50 in [6] is greater than 10000 nM; in assay [7], greater than 10000 nM; in assay [8] it was greater than 1000 nM. Moreover, the ΔTm in assay [9] worked out at 1.7 °C; in assay [10] it was 2.1 °C; in assay [11], 1.1 °C; in assay [12] it was 0.6 °C.
